According to US20160237067A1, “SUBSTITUTED PHENYLALANINE DERIVATIVES” (BAYER PHARMA AKTIENGESELLSCHAFT, priority 2013, published 2016):
Where a name gives a salt, the structure may show the parent alone.

How the values were obtained:
human factor XIa = molecular target: T1, human factor XIa (Homo sapiens, UniProt P03951); assay: Measurement of FXIa inhibition (fluorogenic peptide substrate Boc-Glu(OBzl)-Ala-Arg-AMC); assay type: biochemical; conditions: factor XIa from Kordia 0.45 nM; 15 min preincubation; 30 min at 22° C.
T1 construct: purchased Kordia
Experimental: The factor XIa inhibition of the substances according to the invention is determined using a biochemical test system which utilizes the reaction of a peptidic factor XIa substrate to determine the enzymatic activity of human factor XIa. Here, factor XIa cleaves from the peptic factor XIa substrate the C-terminal aminomethylcoumarin (AMC), the fluorescence of which is measured. The determinations are carried out in microtitre plates.
Test substances are dissolved in dimethyl sulphoxide and serially diluted in dimethyl sulphoxide (3000 μM to 0.0078 μM; resulting final concentrations in the test: 50 μM to 0.00013 μM). In each case 1 μl of the diluted substance solutions is placed into the wells of white microtitre plates from Greiner (384 wells). Subsequently, the following are added successively: 20 μl of assay buffer (50 mmol/l Tris buffer pH 7.4; 100 mmol/l sodium chloride; 5 mmol/l calcium chloride; 0.1% bovine serum albumin) and 20 μl of factor XIa from Kordia (0.45 nM in assay buffer). After 15 min of incubation, the enzyme reaction is started by addition of 20 μl of the factor XIa substrate Boc-Glu(OBzl)-Ala-Arg-AMC dissolved in assay buffer (10 μM in assay buffer) from Bachem, the mixture is incubated at room temperature (22° C.) for 30 min and fluorescence is then measured (excitation: 360 nm, emission: 460 nm). The measured emissions of the test batches with test substance are compared to those of control batches without test substance (only dimethyl sulphoxide instead of test substance in dimethyl sulphoxide), and IC50 values are calculated from the concentration/activity relationships.

human and animal plasma = assay: Determination of anticoagulatory activity: activated partial thromboplastin time (aPTT) in plasma; assay type: biochemical; conditions: C.K. Prest kit, 37° C., 3 minutes incubation, plasma species of Table B not stated
Experimental: The anticoagulatory activity of the test substances is determined in vitro in human and animal plasma (for example mouse, rat, rabbit, pig and dog plasma). To this end, blood is drawn off in a mixing ratio of sodium citrate/blood of 1:9 using a 0.11 molar sodium citrate solution as receiver. Immediately after the blood has been drawn off, it is mixed thoroughly and centrifuged at about 4000 g for 15 minutes. The supernatant is pipetted off.
The activated partial thromboplastin time (aPTT) is determined in the presence of varying concentrations of test substance or the corresponding solvent using a commercial test kit (C.K. Prest from Diagnostica Stago). The test compounds are incubated with the plasma and the PTT reagent (cephalin, kaolin) at 37° C. for 3 minutes. Coagulation is then started by addition of a 25 mM aqueous calcium chloride solution, and the time when coagulation occurs is determined. The concentration of test substance which brings about a 1.5-fold extension of the aPTT is determined Activity data from this test are listed in Table B below: […]

T1 sequence (P03951 388-625 limits assumed): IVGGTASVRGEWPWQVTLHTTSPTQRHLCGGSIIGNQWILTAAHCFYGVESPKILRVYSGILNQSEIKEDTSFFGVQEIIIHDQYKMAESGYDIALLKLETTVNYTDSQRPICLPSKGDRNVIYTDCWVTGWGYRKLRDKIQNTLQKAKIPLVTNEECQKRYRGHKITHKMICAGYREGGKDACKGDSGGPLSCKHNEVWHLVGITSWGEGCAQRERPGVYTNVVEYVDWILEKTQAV
T1 sequence (P03951 19-387 partner limits assumed): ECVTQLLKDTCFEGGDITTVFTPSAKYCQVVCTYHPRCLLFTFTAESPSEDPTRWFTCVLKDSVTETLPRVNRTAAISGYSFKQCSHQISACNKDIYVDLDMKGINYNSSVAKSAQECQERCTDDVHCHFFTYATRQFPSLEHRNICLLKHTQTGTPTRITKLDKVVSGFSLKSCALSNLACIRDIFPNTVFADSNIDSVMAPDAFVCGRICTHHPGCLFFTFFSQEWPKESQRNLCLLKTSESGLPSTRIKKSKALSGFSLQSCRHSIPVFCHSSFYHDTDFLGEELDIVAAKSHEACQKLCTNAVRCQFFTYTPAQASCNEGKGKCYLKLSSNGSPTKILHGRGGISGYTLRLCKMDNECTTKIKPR

Row | SMILES | IC50 (human factor XIa) [nM] | aPTT (concentration of test substance which brings about a 1.5-fold extension of the aPTT) (human and animal plasma) [µmol/L]
1 | NC[C@H]1CC[C@H](C(=O)N[C@@H](Cc2ccc(-c3cccc(C(=O)N4CCOCC4)c3)cc2)C(=O)Nc2ccc(-c3nn[nH]n3)cc2)CC1 [Example 20, trans-4-(Aminomethyl)-N-[(2S)-3-[3′-(morpholin-4-ylcarbonyl)biphenyl-4-yl]-1-oxo-1-{[4-(2H-tetrazol-5-yl)phenyl]amino}propan-2-yl]cyclohexanecarboxamide hydrochloride] | 2.7 | 0.39
2 | CCN(CC)CCNC(=O)c1ccc(C)c(-c2ccc(C[C@H](NC(=O)[C@H]3CC[C@H](CN)CC3)C(=O)Nc3ccc(-c4nn[nH]n4)cc3)cc2)c1 [Example 10, 4′-[(2S)-2-({[trans-4-(Aminomethyl)cyclohexyl]carbonyl}amino)-3-oxo-3-{[4-(2H-tetrazol-5-yl)phenyl]amino}propyl]-N-[2-(diethylamino)ethyl]-6-methylbiphenyl-3-carboxamide hydrochloride] | 8 | 0.38
3 | Cc1ccc(-c2ccc(C[C@H](NC(=O)[C@H]3CC[C@H](CN)CC3)C(=O)Nc3ccc(-c4nn[nH]n4)cc3)cc2)cc1NC(=O)C1CCOCC1 [Example 29, N-{4′-[(2S)-2-({[trans-4-(Aminomethyl)cyclohexyl]carbonyl}amino)-3-oxo-3-{[4-(2H-tetrazol-5-yl)phenyl]amino}propyl]-4-methylbiphenyl-3-yl}tetrahydro-2H-pyran-4-carboxamide hydrochloride] | 11 | 0.3
4 | Cc1ccc(C(=O)N2CCNCC2)cc1-c1ccc(C[C@H](NC(=O)[C@H]2CC[C@H](CN)CC2)C(=O)Nc2ccc(-c3nn[nH]n3)cc2)cc1 [Example 12, trans-4-(Aminomethyl)-N-[(2S)-3-[2′-methyl-5′-(piperazin-1-ylcarbonyl)biphenyl-4-yl]-1-oxo-1-{[4-(2H-tetrazol-5-yl)phenyl]amino}propan-2-yl]cyclohexanecarboxamide hydrochloride] | 8.1 | 0.49
5 | Cc1ccc(S(=O)(=O)N2CCCC2)cc1-c1ccc(C[C@H](NC(=O)[C@H]2CC[C@H](CN)CC2)C(=O)Nc2ccc3[nH]c(=O)[nH]c3c2)cc1 [Example 7, trans-4-(Aminomethyl)-N-{(2S)-3-[2′-methyl-5′-(pyrrolidin-1-ylsulphonyl)biphenyl-4-yl]-1-oxo-1-[(2-oxo-2,3-dihydro-1H-benzimidazol-5-yl)amino]propan-2-yl}cyclohexanecarboxamide hydrochloride] | 11 | 0.39
6 | CCN(CC)CCNC(=O)c1cccc(-c2ccc(C[C@H](NC(=O)[C@H]3CC[C@H](CN)CC3)C(=O)Nc3ccc(-c4nn[nH]n4)cc3)cc2)c1F [Example 16, 4′-[(2S)-2-({[trans-4-(Aminomethyl)cyclohexyl]carbonyl}amino)-3-oxo-3-{[4-(2H-tetrazol-5-yl)phenyl]amino}propyl]-N-[2-(diethylamino)ethyl]-2-fluorobiphenyl-3-carboxamide hydrochloride] | 9 | 0.2
7 | Cc1ccc(N(C)C)cc1-c1ccc(C[C@H](NC(=O)[C@H]2CC[C@H](CN)CC2)C(=O)Nc2ccc(-c3nnn[nH]3)cc2)cc1 [Example 28, trans-4-(Aminomethyl)-N-[(2S)-3-[5′-(dimethylamino)-2′-methylbiphenyl-4-yl]-1-oxo-1-{[4-(1H-tetrazol-5-yl)phenyl]amino}propan-2-yl]cyclohexanecarboxamide hydrochloride] | 1.5 | 0.26
8 | Cc1cc(C(=O)NC2CCC(N(C)C)CC2)cc(-c2ccc(C[C@H](NC(=O)[C@H]3CC[C@H](CN)CC3)C(=O)Nc3ccc(-c4nn[nH]n4)cc3)cc2)c1 (stereo partly drawn) [Example 37, 4′-[(2S)-24 {[trans-4-(Aminomethyl)cyclohexyl]carbonyl}amino)-3-oxo-3-{[4-(2H-tetrazol-5-yl)phenyl]amino}propyl]-N-[4-(dimethylamino)cyclohexyl]-5-methylbiphenyl-3-carboxamide hydrochloride] | 7.5 | 0.14
9 | Cc1ccc(C(=O)N[C@@H]2CCNC2)cc1-c1ccc(C[C@H](NC(=O)[C@H]2CC[C@H](CN)CC2)C(=O)Nc2ccc(-c3nn[nH]n3)cc2)cc1 [Example 11, 4′-[(2S)-2-({[trans-4-(Aminomethyl)cyclohexyl]carbonyl}amino)-3-oxo-3-{[4-(2H-tetrazol-5-yl)phenyl]amino}propyl]-6-methyl-N-[(3R)-pyrrolidin-3-yl]biphenyl-3-carboxamide hydrochloride] | 6.9 | 0.26
10 | Cc1ccc(C(=O)NC(C)C)cc1-c1ccc(C[C@H](NC(=O)[C@H]2CC[C@H](CN)CC2)C(=O)Nc2ccc(-c3nc(CCC(=O)O)n[nH]3)cc2)cc1 [Example 43, 3-{5-[4-({(2S)-2-({[trans-4-(Aminomethyl)cyclohexyl]carbonyl}amino)-3-[5′-(isopropylcarbamoyl)-2′-methylbiphenyl-4-yl]propanoyl}amino)phenyl]-1H-1,2,4-triazol-3-yl}propanoic acid hydrochloride] | 9.7 | 0.38
11 | CN1CCN(C(=O)c2cccc(-c3ccc(C[C@H](NC(=O)[C@H]4CC[C@H](CN)CC4)C(=O)Nc4ccc(-c5nnn[nH]5)cc4)cc3)c2)CC1 [Example 5, trans-4-(Aminomethyl)-N-[(2S)-3-{3′-[(4-methylpiperazin-1-yl)carbonyl]biphenyl-4-yl}-1-oxo-1-{[4-(1H-tetrazol-5-yl)phenyl]amino}propan-2-yl]cyclohexanecarboxamide hydrochloride] | 11 | 0.37
12 | NC[C@H]1CC[C@H](C(=O)N[C@@H](Cc2ccc(-c3cccc(OCCN4CCOCC4)c3)cc2)C(=O)Nc2ccc(-c3nn[nH]n3)cc2)CC1 [Example 6, trans-4-(Aminomethyl)-N-[(2S)-3-{3′-[2-(morpholin-4-yl)ethoxy]biphenyl-4-yl}-1-oxo-1-{[4-(2H-tetrazol-5-yl)phenyl]amino}propan-2-yl]cyclohexanecarboxamide hydrochloride] | 14 | 0.54
13 | Cc1ccc(C(=O)N2CCOCC2)cc1-c1ccc(C[C@H](NC(=O)[C@H]2CC[C@H](CN)CC2)C(=O)Nc2ccc(-c3nn[nH]n3)cc2)cc1 [Example 33, trans-4-(Aminomethyl)-N-[(2S)-3-[2′-methyl-5′-(morpholin-4-ylcarbonyl)biphenyl-4-yl]-1-oxo-1-{[4-(2H-tetrazol-5-yl)phenyl]amino}propan-2-yl]cyclohexanecarboxamide hydrochloride] | 5.4 | 0.18
14 | Cc1ccc(C(=O)NC2CCN(C)CC2)cc1-c1ccc(C[C@H](NC(=O)[C@H]2CC[C@H](CN)CC2)C(=O)Nc2ccc(-c3nc(C(F)(F)C(F)(F)C(=O)O)n[nH]3)cc2)cc1 [Example 42, 3-[5-(4-{[(2S)-2-({[trans-4-(Aminomethyl)cyclohexyl]carbonyl}amino)-3-{2′-methyl-5′-[(1-methylpiperidin-4-yl)carbamoyl]biphenyl-4-yl}propanoyl]amino}phenyl)-1H-1,2,4-triazol-3-yl]-2,2,3,3-tetrafluoropropanoic acid hydrochloride] | 6.8 | 0.16
15 | COc1ccc(-c2ccc(C[C@H](NC(=O)[C@H]3CC[C@H](CN)CC3)C(=O)Nc3ccc(-c4nc(C(F)(F)C(F)(F)C(=O)O)n[nH]4)cc3)cc2)cc1S(=O)(=O)N1CCOCC1 [Example 44, 3-{5-[4-({(2S)-2-({[trans-4-(Aminomethyl)cyclohexyl]carbonyl}amino)-3-[4′-methoxy-3′-(morpholin-4-ylsulphonyl)biphenyl-4-yl]propanoyl}amino)phenyl]-1H-1,2,4-triazol-3-yl}-2,2,3,3-tetrafluoropropanoic acid hydrochloride] | 2.2 | 0.2
